US3987028A, “Antibiotic 20,798 R.P” (Rhone-Poulenc S.A., priority 1968, dated 1976)
Values after ≈ are worked out from the molar mass of the structure shown. Structures can show the parent of a compound that is named as a salt.

Key:
solubility = type: physicochemical
[1] = system: Brucella bronchiseptica (CN 387 - Wellcome Institute); assay: microbe, parasite or virus in culture; type: cell-based; conditions: Bordetella bronchiseptica, read-out: Minimal inhibitory concentration
toxicity on mice (LD50) = conditions: mouse, in vivo, ip, intra-peritoneal (i.p.), read-out: 50% lethal dose (LD50)
Description: The toxicity of 20,798 R.P. has been studied principally on mice. The 50% lethal dose or LD50 was determined intra-peritoneally: […]

[2] = stability to acid treatment of the fermentation broth; type: physicochemical; conditions: 10° to 75° C., 48 hours to 30 minutes
Description: When desired, the fermentation broth can, before the extraction procedures, be treated with an acid at a temperature between 10° and 75° C. for a period of from 48 hours to 30 minutes, the length of time varying inversely with the temperature, so as to enrich the antibiotic 9865 R.P. with daunorubicin. […] For acidification of the fermentation broth inorganic acids (hydrochloric, phosphoric or sulphuric acid) or organic acids (acetic or oxalic acid etc.) are suitable at various concentrations, but preferably hydrochloric acid or oxalic acid is used at concentrations of between 0.01N and 1N. The hydrolysis is preferably carried out for a period of from 15 hours to 1 hour at a temperature of from 20° C. to 50° C., the length of time varying inversely with the temperature.

sarcoma 180 = assay: anti-tumor activity in mice, sarcoma 180
leucaemia L 1210 = assay: anti-tumor activity in mice, leucaemia L 1210
[3] = system: Streptococcus faecalis (Faculty of Pharmacy, Paris); type: cell-based; conditions: Enterococcus faecalis, read-out: Minimal inhibitory concentration
Description: (§1) The bacteriostatic activity of 20,798 R.P. was determined by one of the dilution methods usually employed for this purpose. For each microorganism the minimum concentration of antibiotic, which under specified conditions inhibits all visible development of the microorganism in an appropriate nutrient medium, was determined. The results of the various determinations are collected in Table III below, in which the minimum bacteriostatic concentrations are expressed in micrograms of substance per cc. of test medium.

[4] = system: Streptococcus pyogenes hemolyticus (strain Dig. 7, Institut Pasteur); type: cell-based; conditions: read-out: Minimal inhibitory concentration
Description: as §1

[5] = system: Bacillus subtilis (ATCC 6633); type: cell-based; conditions: ATCC6633, read-out: Minimal inhibitory concentration
Description: as §1

[6] = system: Mycobacterium smegmatis ATCC 607; type: cell-based; conditions: Mycolicibacterium smegmatis, ATCC607, read-out: Minimal inhibitory concentration
Description: as §1

[7] = system: Neisseria catarrhalis A 152; type: cell-based; conditions: A152, read-out: Minimal inhibitory concentration
Description: as §1

[8] = system: Pasteurella multocida (A 125, Institut Pasteur); type: cell-based; conditions: read-out: Minimal inhibitory concentration
Description: as §1

[9] = system: Diplococcus pneumoniae (strain Til, Institut Pasteur); type: cell-based; conditions: Streptococcus pneumoniae, read-out: Minimal inhibitory concentration
Description: as §1

[10] = system: Klebsiella pneumoniae ATCC 10,031; type: cell-based; conditions: read-out: Minimal inhibitory concentration
Description: as §1

Proteus X 19 = type: cell-based; conditions: read-out: Minimal inhibitory concentration
Description: as §1

Sarcina lutea ATCC 9341 = type: cell-based; conditions: Micrococcus luteus, ATCC9341, read-out: Minimal inhibitory concentration
Description: as §1

[11] = system: Salmonella paratyphi A (Lacasse, Institut Pasteur); type: cell-based; conditions: Salmonella enterica, read-out: Minimal inhibitory concentration
Description: as §1

[12] = system: Mycobacterium para-smegmatis (A 75, Lausanne); type: cell-based; conditions: read-out: Minimal inhibitory concentration
Description: as §1

[13] = system: Staphylococcus aureus, strain 209 P ATCC 6538 P; type: cell-based; conditions: ATCC6538; Staphylococcus aureus 209 P ATCC 6538 P; read-out: Minimal inhibitory concentration
Description: as §1

[14] = system: Mycobacterium phlei (Bacteriological Institute of Lyon); type: cell-based; conditions: Mycolicibacterium phlei, read-out: Minimal inhibitory concentration
Description: as §1

[15] = system: Lactobacillus casei ATCC 7469; type: cell-based; conditions: Lacticaseibacillus casei, ATCC7469, read-out: Minimal inhibitory concentration
Description: as §1

COc1cccc2c1C(=O)c1c(O)c3c(c(O)c1C2=O)CC(O)(C(C)O)CC3OC1CC(N)C(O)C(C)O1 (stereo not shown) [20,798 R.P. hydrochloride]
Solubility (solubility; alcohols): soluble
Solubility (solubility; benzene): practically insoluble
Solubility (solubility; chloroform): sparingly soluble
Solubility (solubility; diethyl ether): practically insoluble
Solubility (solubility; water): soluble

COc1cccc2c1C(=O)c1c(O)c3c(c(O)c1C2=O)CC(O)(C(C)O)CC3OC1CC(N)C(O)C(C)O1 (stereo not shown) [20,798 R.P.]
MIC [1]: 170 µg/mL (≈ 321 µM)
LD50 (toxicity on mice (LD50)): 6.5 mg/kg
hydrolysis under acid treatment [2]: not hydrolysed
ED50 (sarcoma 180; Mus musculus, Sarcoma-180, sc, read-out: 50% active dose (AD50)): 0.75 mg/kg
anti-tumor activity (sarcoma 180; graftable tumours of mice, solid form of sarcoma 180): particularly active
ED50 (leucaemia L 1210; Mus musculus, L1210, ip, read-out: 50% active dose (AD50)): 0.8 mg/kg
anti-tumor activity (leucaemia L 1210; graftable tumours of mice, leucaemia L 1210): particularly active
MIC [3]: > 33 µg/mL
MIC [4]: 11 µg/mL (≈ 20.8 µM)
MIC [5]: 21 µg/mL (≈ 39.7 µM)
MIC [6]: 5.8 µg/mL (≈ 11 µM)
MIC [7]: > 28 µg/mL
MIC [8]: 14 µg/mL (≈ 26.4 µM)
MIC [9]: 6.1 µg/mL (≈ 11.5 µM)
MIC [10]: > 330 µg/mL
MIC (Proteus X 19): > 83 µg/mL
MIC (Sarcina lutea ATCC 9341): 12 µg/mL (≈ 22.7 µM)
MIC [11]: > 83 µg/mL
MIC [12]: 3.1 µg/mL (≈ 5.85 µM)
MIC [13]: 100 µg/mL (≈ 189 µM)
MIC [14]: 3.1 µg/mL (≈ 5.85 µM)
MIC [15]: 24 µg/mL (≈ 45.3 µM)

COc1cccc2c1C(=O)c1c(O)c3c(c(O)c1C2=O)CC(O)(C(C)O)CC3O (stereo not shown) [aglycone of 20,798 R.P.]
Solubility (solubility; benzene): very sparingly soluble
Solubility (solubility; chloroform): sparingly soluble
Solubility (solubility; diethyl ether): practically insoluble
Solubility (solubility; ethyl acetate): sparingly soluble
Solubility (solubility; hexane): practically insoluble
Solubility (solubility; methanol): sparingly soluble
Solubility (solubility; water): practically insoluble
